One assay has as its system RBL-2H3 cells. In words: RBL-2H3 cell degranulation inhibition test. The class given is cell-based, rat. As to conditions: untreated control = 100. On the procedure: Whether or not an anti-I-type allergy agent has a degranulation inhibitory action can be confirmed through the following method. For example, cells, such as rat basophilic leukemia cells (RBL-2H3 cells), which extracellularly release […] containing histamine through cross-linking of IgE bound on a cell surface due to an antigen are used. The extent to which the degranulation of a specimen to which an anti-I-type allergy agent is added is inhibited when these cells are stimulated by the antigen is calculated compared to a specimen to which no anti-I-type allergy agent is added. RBL-2H3 cells, which were rat basophilic leukemia cells, (National Institutes of Biomedical Innovation, Health and Nutrition) were seeded in a 96-well plate and were then cultured overnight. […] Then, the cells were washed with the buffer solutions. Furthermore, the prepared 1,000, 500, and 250 μg/mL test solutions were added thereto so that the final concentrations became 500 μg/mL (Example 1), 250 μg/mL (Example 2), and 125 μg/mL (Example 3), respectively. Thereafter, the mixtures were allowed to react at 37° C. for 10 minutes. Then, DNP-labeled human serum albumin was added thereto, and the mixtures were further allowed to react at 37° C. for 3 hours. […] For each sample of Examples 1 to 3, Comparative Example 1, a positive control, an antigen-unstimulated control, and sample blanks, the absorbance of p-nitrophenol generated by reaction between a substrate and β-hexosaminidase present in granules was measured (at a measurement wavelength of 405 nm and a control wavelength of 650 nm) using a microplate reader (SpectraMax M2e, Molecular Devices, LLC.) The emission rate was obtained using the following equation from the absorbance of each sample with respect to the absorbance of Comparative Example 1, and each degranulation rate was calculated from the emission rate. In the equation, “absorbance on cell supernatant” and “absorbance on cell solution side” are values obtained by subtracting the sample blanks. Emission rate (%)=absorbance on cell supernatant side/(absorbance on cell supernatant side+absorbance on cell solution side) Degranulation rate (%)={average value of (emission rate of test solution−emission rate of antigen-unstimulated control)/(emission rate of untreated control−emission rate of antigen-unstimulated control)}×100

Assay [1] has as its system short-term memory impairment caused by accumulation of amyloid β proteins. In words: Y-shaped maze test in mice injected with amyloid β. The class given is in vivo. As to conditions: 100 mg/kg oral once a day. On the procedure: p-Coumaric acid (trans-p-coumaric acid, Tokyo Chemical Industry Co., Ltd.) was stored at room temperature (control temperature: 18.0° C. to 28.0° C.) until it was used in a test. Injection water (Otsuka distilled water, Otsuka Pharmaceutical Factory, Inc.) was prepared as a medium in which p-coumaric acid was to be dissolved. The required amount of p-coumaric acid was weighed out and dissolved in the injection water. Then, the dissolved p-coumaric acid was diluted to a predetermined concentration to obtain a test solution.
Amyloid β (Amyloid-β Protein (25-35, Polypeptide Laboratories) to be used in an amyloid β solution was stored in a freezer (control temperature: −30° C. to −20° C.) until it was to be used in a test. Amyloid β was dissolved in injection water to 2 mM to prepare an amyloid β solution.
Male Slc:ddY mice (SPF, Japan SLC, Inc.) were used as test animals 5-week-old mice were obtained as the mice. Mice are animal species generally used in behavioral pharmacology tests, and maintenance of their strains is clear. The body weight range of the mice 1 day after the acquisition was 23.8 to 30.0 g.
Grouping was performed through a random sampling method on the start day of administration of a test solution so that the average body weight of each group was approximately uniform. As a group configuration, there were three groups: a pseudo-operation group, a medium control group, and a p-coumaric acid administration group. In the p-coumaric acid administration group, the amount of solution administered was calculated as 10 mL/kg based on the body weight on the administration day so that the amount of p-coumaric acid administered was 100 mg/kg per mouse. A 0.5% (w/v) methyl cellulose solution was administered to the pseudo-operation group and the medium control group at 10 mL/kg.
The start day of administration of a test solution was regarded as day 1 of administration, the test solution was administered once a day, and an amyloid β solution was injected into the mice on day 8 of the administration. Thereafter, a Y-shaped maze test was carried out on day 14 of the administration. Each procedure will be described below.
The administration route was oral administration. Regarding the administration method, a test solution was orally administered according to a usual method used in test facilities using a polypropylene disposable injection cylinder (TERUMO CORPORATION) equipped with a disposable oral sonde for mice (Fuchigami Kikai). At the time of the administration operation, the test solution was mixed by inversion every time it was administered to a mouse, and was then sucked into the injection cylinder. On the day of injection of an amyloid β solution, the test solution was administered after the injection of the amyloid β solution. […]

Setting [2] is: day 14, 8 minutes in maze, mean ± standard error.

On to `COC[C@H]1OC(=O)c2coc3c2[C@@]1(C)C1=C(C3=O)[C@@H]2CCC(=O)[C@@]2(C)C[C@H]1OC(C)=O` [Wortmannin, reference compound], for which the degranulation rate with RBL-2H3 cells (Wortmannin final concentration 25 nmol/L) was 39±6.4%.

Regarding `O=C(O)/C=C/c1ccc(O)cc1` [p-Coumaric acid], in the assay on RBL-2H3 cells (p-coumaric acid final concentration 125 μg/mL), the degranulation rate was determined as 78±8.1%. Besides, the degranulation rate with RBL-2H3 cells (p-coumaric acid final concentration 250 μg/mL) is given as 46±8.0%. For the same compound, the degranulation rate in the assay on RBL-2H3 cells (p-coumaric acid final concentration 500 μg/mL, anti-DNP-IgE sensitised, DNP-labeled human serum albumin stimulated) came to 12±3.0%. In addition, in assay [1] (setting [2]), the “Spontaneous alternation behavior number” value is on record as 21.3 ± 1.5, the “Spontaneous behavior alternation rate (%)” value amounted to 66.0 ± 1.4% and the Total entry number stood at 34.2 ± 2.1. Also, the “spontaneous alternation behavior rate compared with medium control group” value in assay [1] (day 14, significant difference p<0.01) is “higher than that of the medium control group”.

Source of the values: patent US20210059964A1, “Anti-I-Type Allergy Agent, Degranulation Inhibitor for Basophils and Mast Cells, Anti-Dementia Agent, Agent for Improving/Inhibiting Short-Term Memory Impairment” (Mitsui Sugar Co., Ltd., priority 2018, published 2021).
